From the supplement of paper PMC11821682 come the findings set out here.

Experiment [1] concerns HL-60. The experiment is described as follows: Cell Health Index (toxicity pseudo-probability over dose series) (index 0-1); higher = more cytotoxic / cell stress.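 Also: HL-60 cells exposed 4 h at 37 °C to ten threefold dilutions spanning 5 nM to 100 µM, multiparametric flow cytometry features scored by machine-learning classification.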
Experiment [2] deals with Danio rerio embryo. As to the kind of experiment: BMC10 any morphological effect or mortality at 120 hpf; higher = less toxic. As for the experimental part: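 ZBEscreen: dechorionated Tropical 5D zebrafish embryos were exposed from 4 hpf in 96-well plates (1% DMSO, 28 °C). All compounds were first tested at 100 µM; hits were retested at 0.005-100 µM. Morphology and mortality were scored at 120 hpf and fitted as BMC10 (3-parameter log-logistic, extra risk). The embryonic photomotor response at 24 hpf and the larval photomotor response at 120 hpf are given as lowest effect levels (K-S test, p<0.01). NA = not significant up to 100 µM; NT = not tested.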

`CC(=O)NC1[C@H]([C@H](O)[C@H](O)CO)O[C@@](O[C@H]2[C@@H](O)[C@@H](CO)O[C@@H](O[C@@H]([C@H](O)[C@@H](O)C=O)[C@H](O)CO)[C@@H]2O)(C(=O)[O-])C[C@@H]1O.[Na+]` (stereo not given in full) [N-Acetylneuraminoyllactose]: the “Cell Health Index” value in experiment [1] is 0.235. Also, the “BMC10 any morphological effect or mortality” value in experiment [2] was above 100 µM.
The corresponding values for `Nc1ccn([C@@H]2O[C@H](CO)[C@@H](O)[C@@H]2O)c(=O)n1` [Cytarabine] are 0.203 and above 100 µM.
The corresponding values for `COC[C@H]1C[C@@H](c2ncc(-c3ccc4c(c3)COc3cc5c(ccc6nc([C@@H]7CC[C@H](C)N7C(=O)[C@@H](NC(=O)OC)C(C)C)[nH]c65)cc3-4)[nH]2)N(C(=O)[C@H](NC(=O)OC)c2ccccc2)C1` [Velpatasvir] are 0.286 and above 100 µM.
The like results for `NC(=O)NO` [Hydroxyurea] were, in that order, 0.161 and above 100 µM.
For the molecule `O=C(/C=C/c1ccccc1)NC(NC(=S)Nc1cccc2cccnc12)C(Cl)(Cl)Cl` (stereo not given) [Salubrinal], the “Cell Health Index” value in experiment [1] was determined as 0.377. The “BMC10 any morphological effect or mortality” value in experiment [2] was above 100 µM.
The like results for `CCCn1c(=O)[nH]c2nc(-c3ccc(S(=O)(=O)N4CCN(c5ccc(Cl)cc5)CC4)cc3)[nH]c2c1=O` [PSB-603] were, in that order, 0.489 and above 100 µM.
The corresponding values for `Cc1cn([C@@H]2C[C@@H](O)[C@H](CO)O2)c(=O)[nH]c1=O` [Telbivudine] are 0.153 and above 100 µM.
As to `C=C1CC[C@@H]2[C@](C)(CO[C@@H]3O[C@H](CO)[C@@H](O)[C@H](O)[C@H]3O)CCC[C@@]2(C)[C@@H]1CCC1=CCOC1=O` [Neoandrographolide], in experiment [1], the “Cell Health Index” value stood at 0.21. Further, the “BMC10 any morphological effect or mortality” value in experiment [2] is above 100 µM.
The like results for `CCOC(=O)CN[C@@H](C(=O)N1CC[C@H]1C(=O)NCc1ccc(C(=N)NO)cc1)C1CCCCC1` [Ximelagatran] were, in that order, 0.193 and above 100 µM.
Consider `Nc1nc(NC2CC2)c2ncn([C@H]3C=C[C@@H](CO)C3)c2n1.O=S(=O)(O)O` [Abacavir], for which the “Cell Health Index” value in experiment [1] worked out at 0.116. In experiment [2], the “BMC10 any morphological effect or mortality” value is above 100 µM.
With `O=C(OC1OC2COC(=O)c3cc(O)c(O)c(O)c3-c3c(cc(O)c(O)c3O)C(=O)OC(C2O)C1O)c1cc(O)c(O)c(O)c1` (stereo not given) [Corilagin], in experiment [1], the “Cell Health Index” value turned out to be 0.889. In experiment [2], the “BMC10 any morphological effect or mortality” value was above 100 µM.
The corresponding values for `CC(C)(C)OC(=O)N[C@H]1CCCCC/C=C\[C@@H]2C[C@@]2(C(=O)NS(=O)(=O)C2CC2)NC(=O)[C@@H]2C[C@@H](OC(=O)N3Cc4cccc(F)c4C3)CN2C1=O` [Danoprevir] are 0.26 and above 100 µM.
The like results for `CC(C)Cc1ncc(Cc2ccccc2)[nH]c1=O` [Pheleuin] were, in that order, 0.182 and above 100 µM.
For `CCCCCCCCCCCCCCCCCCCCCCO` [Docosanol], in experiment [1], the “Cell Health Index” value came to 0.266. The “BMC10 any morphological effect or mortality” value in experiment [2] is above 100 µM.
The like results for `OCC1=C[C@@H](O)[C@@H]2C=CO[C@@H](O[C@@H]3O[C@H](CO)[C@@H](O)[C@H](O)[C@H]3O)[C@H]12` [Aucubin] were, in that order, 0.304 and above 100 µM.
The corresponding values for `CC(C)(C)NC(=O)[C@@H]1C[C@@H]2CCCC[C@@H]2CN1C[C@@H](O)[C@H](Cc1ccccc1)NC(=O)[C@H](CC(N)=O)NC(=O)c1ccc2ccccc2n1.CS(=O)(=O)O` [Saquinavir] are 0.87 and above 100 µM.
As to `O=c1cc(-c2ccc(O)cc2)oc2cc(O)c(O)c(O)c12` [Scutellarein], the “Cell Health Index” value in experiment [1] came to 0.815. The “BMC10 any morphological effect or mortality” value in experiment [2] was above 100 µM.
The like results for `O=C(O)c1ccc2nc(-c3ccccc3)c(-c3ccccc3)nc2c1` [2,3-diphenylquinoxaline-6-carboxylic acid] were, in that order, 0.217 and above 100 µM.
The corresponding values for `O=c1[nH]c(=O)n([C@H]2C[C@H](O)[C@@H](CO)O2)cc1I` [Idoxuridine] are 0.205 and above 100 µM.
The corresponding values for `CC(C)(O)[C@@H]1CC[C@](C)([C@H]2[C@@H](O)C[C@@]3(C)[C@@H]4C[C@H](O[C@@H]5O[C@H](CO)[C@@H](O)[C@H](O)[C@H]5O)[C@H]5C(C)(C)[C@@H](O[C@@H]6OC[C@@H](O)[C@H](O)[C@H]6O)CC[C@@]56C[C@@]46CC[C@]23C)O1` [Astragaloside IV] are 0.16 and above 100 µM.
`C[C@@H]1CCN(C(=O)CC#N)C[C@@H]1N(C)c1ncnc2[nH]ccc12.O=C(O)CC(O)(CC(=O)O)C(=O)O` [Tofacitinib]: the “Cell Health Index” value in experiment [1] is 0.228. The “BMC10 any morphological effect or mortality” value in experiment [2] was above 100 µM.
On to `COc1cc2c(=O)c(-c3ccc(O)cc3)coc2cc1O[C@@H]1O[C@H](CO)[C@@H](O)[C@H](O)[C@H]1O` [Glycitin], for which the “Cell Health Index” value in experiment [1] was determined as 0.158. Moreover, in experiment [2], the “BMC10 any morphological effect or mortality” value is above 100 µM.
The corresponding values for `CCCCCCCCCN1C[C@H](O)[C@@H](O)[C@H](O)[C@H]1CO` [N-Nonyldeoxynojirimycin] are 0.254 and above 100 µM.
The like results for `OC[C@H]1OC(O)C[C@@H](O)[C@@H]1O` (stereo partly drawn) [2-deoxy-D-Glucose] were, in that order, 0.325 and above 100 µM.
Regarding `COc1c(-c2ccc3cc(NS(C)(=O)=O)ccc3c2)cc(-n2ccc(=O)[nH]c2=O)cc1C(C)(C)C` [Dasabuvir], in experiment [1], the “Cell Health Index” value turned out to be 0.608. The “BMC10 any morphological effect or mortality” value in experiment [2] is above 100 µM.
The like results for `O=C(/C=C/c1ccc(O)c(O)c1)O[C@@H]1C[C@@](O)(C(=O)O)C[C@@H](O)[C@@H]1O` [5-Caffeoylquinic acid] were, in that order, 0.295 and above 100 µM.
In the case of `CCN(CC)Cc1ccc(C(=O)N(CCc2ccccc2OC)[C@@H]2CCNC2)cc1.Cl.Cl`, the “Cell Health Index” value in experiment [1] amounted to 0.318. For the same molecule, the “BMC10 any morphological effect or mortality” value in experiment [2] was above 100 µM.
The corresponding values for `O=C(O)c1cc(O)c2c(c1)[C@H]([C@H]1c3cc(C(=O)O)cc(O)c3C(=O)c3c(O[C@@H]4O[C@H](CO)[C@@H](O)[C@H](O)[C@H]4O)cccc31)c1cccc(O[C@@H]3O[C@H](CO)[C@@H](O)[C@H](O)[C@H]3O)c1C2=O` [Sennoside A] are 0.422 and above 100 µM.
The corresponding values for `Cl.c1ccc([C@H]2CN3CCSC3=N2)cc1` [(-)-Levamisole] are 0.173 and above 100 µM.
The corresponding values for `O=C(/C=C/c1ccc(O)c(O)c1)O[C@H]1[C@H](O)C[C@](O)(C(=O)O)C[C@H]1OC(=O)/C=C/c1ccc(O)c(O)c1` [4,5-Dicaffeoylquinic acid] are 0.542 and above 100 µM.
For `CC(C)C[C@H](NC(=O)[C@@H](NC(=O)N[C@@H](Cc1ccccc1)C(=O)O)C1CCNC(=N)N1)C(=O)N[C@H](C=O)Cc1ccccc1` (stereo not given in full) [Chymostatin], the “Cell Health Index” value in experiment [1] is 0.19. Further, the “BMC10 any morphological effect or mortality” value in experiment [2] is above 100 µM.
The like results for `N=C(N)NCCC[C@H](NC(=O)c1ccc2ccccc2c1O)C(=O)N1CCC[C@H]1C(N)=O.O=C(O)C(F)(F)F` [APC 366] were, in that order, 0.223 and above 100 µM.
The corresponding values for `O=c1[nH]cnc2c1ncn2[C@H]1CC[C@@H](CO)O1` [Didanosine] are 0.159 and above 100 µM.
The like results for `COc1ccc(C2CNC(=O)C2)cc1OC1CCCC1` (stereo not given) [Rolipram] were, in that order, 0.152 and above 100 µM.
As to `CC(=O)N[C@@H](CC(C)C)C(=O)N[C@@H](CC(C)C)C(=O)N[C@H](C=O)CCCNC(=N)N.CC(=O)N[C@@H](CC(C)C)C(=O)N[C@@H](CC(C)C)C(=O)N[C@H](C=O)CCCNC(=N)N.O=S(=O)(O)O` [Leupeptin], in experiment [1], the “Cell Health Index” value was determined as 0.184. Besides, in experiment [2], the “BMC10 any morphological effect or mortality” value was above 100 µM.
The corresponding values for `O=c1cc(-c2ccc(O)c(-c3c(O)cc(O)c4c(=O)cc(-c5ccc(O)cc5)oc34)c2)oc2cc(O)cc(O)c12` [Amentoflavone] are 0.74 and above 100 µM.
The corresponding values for `O=C(O)[C@H]1O[C@@H](Oc2cc3oc(-c4ccc(O)cc4)cc(=O)c3c(O)c2O)[C@H](O)[C@@H](O)[C@@H]1O` [Scutellarin] are 0.476 and above 100 µM.
The like results for `O=C(NCc1c(F)cc(F)cc1F)c1cn2c(c(O)c1=O)C(=O)N1[C@H]3CC[C@H](C3)O[C@@H]1C2` [Bictegravir] were, in that order, 0.35 and above 100 µM.
With `OC[C@H]1O[C@@H](Oc2cc(O)cc(C=Cc3ccc(O)cc3)c2)[C@H](O)[C@@H](O)[C@@H]1O` [Polydatin], in experiment [1], the “Cell Health Index” value was 0.106. Further, in experiment [2], the “BMC10 any morphological effect or mortality” value is above 100 µM.
The corresponding values for `CC(=O)N[C@@H]([C@@H](O)[C@H](O)[C@H](O)CO)[C@@H](O)CC(=O)C(=O)O` [Aceneuramic acid] are 0.172 and above 100 µM.
